Data as given in patent US20260376293A1, “METHODS FOR STUDYING GPR158 PHARMACOLOGY AND IDENTIFICATION OF ITS LIGANDS” (UNIVERSITY OF FLORIDA RESEARCH FOUNDATION, INCORPORATED, priority 2022, published 2026).
Like-named read-outs stand apart in the source and are kept apart here.

Molecular target: T1, GPR158 (Homo sapiens, UniProt Q5T848)
T1 construct: GPR158 AC2 (1-775) was expressed and purified; Flag; made in house; host or cells: HEK293 GnTI- (BacMam virus)
T1 sequence (Q5T848 24-775): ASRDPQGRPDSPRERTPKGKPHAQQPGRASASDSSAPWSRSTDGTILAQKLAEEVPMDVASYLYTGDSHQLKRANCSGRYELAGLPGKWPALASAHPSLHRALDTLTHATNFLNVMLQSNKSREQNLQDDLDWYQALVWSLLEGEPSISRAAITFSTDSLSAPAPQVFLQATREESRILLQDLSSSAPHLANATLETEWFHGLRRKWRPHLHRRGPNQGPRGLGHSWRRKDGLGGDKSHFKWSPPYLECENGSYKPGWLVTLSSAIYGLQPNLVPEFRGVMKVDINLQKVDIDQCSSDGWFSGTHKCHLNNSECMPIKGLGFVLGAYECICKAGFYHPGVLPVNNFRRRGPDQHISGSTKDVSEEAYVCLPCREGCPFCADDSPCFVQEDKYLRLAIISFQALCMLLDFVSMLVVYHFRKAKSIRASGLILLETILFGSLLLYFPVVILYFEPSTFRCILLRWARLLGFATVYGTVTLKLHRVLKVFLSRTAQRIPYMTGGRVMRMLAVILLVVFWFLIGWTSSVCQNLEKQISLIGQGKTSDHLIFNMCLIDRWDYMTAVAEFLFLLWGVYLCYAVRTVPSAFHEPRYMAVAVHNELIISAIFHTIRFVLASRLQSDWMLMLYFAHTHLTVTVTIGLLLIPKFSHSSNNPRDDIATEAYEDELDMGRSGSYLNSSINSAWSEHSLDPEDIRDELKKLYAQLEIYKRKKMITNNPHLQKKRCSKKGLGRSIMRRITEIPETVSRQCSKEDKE
Assay: Isothermal Titration calorimetry (ITC) with purified GPR158
Type: binding
Details: purified GPR158-AC2, 23 °C
Protocol: FIGS. 9A-9H. Direct interaction of glycine with GPR158 A) Schematics of assay design for detecting glycine binding to GPR158 by flow cytometry. Cells transfected with GPR158 are incubated with FITC-glycine and fluorescence labeling of cells is detected by flow cytometry. B) Representative flow cytometry histogram showing distribution of cellular populations after sorting. C) Quantification of FITC-glycine binding detected in flow cytometry binding experiments. The median of fluorescence (MFI) is quantified and plotted. Error bars are s.e.m. values, N=3, **p<0.01, ****p<0.0001, two-way ANOVA. D) Schematics of the radioligand binding assay. E) Quantification of ^3H-glycine binding to membrane expressing GPR158. Count Per minute (CPM) are measured and plotted. Data shown mean of 4 independent experiments error bars are s.e.m. values, n=4. […] Data shown mean of 4 independent experiments error bars are s.e.m. values, n=4. G) Schematics of the assay design detecting glycine binding to GPR158 by Isothermal Titration calorimetry (ITC) with purified protein. H) Representative ITC binding profile showing glycine binding to GPR158. Control (thick line), GPR158 (thin line) I) Quantification of binding determined by fitting the integrated isotherm to an independent binding model.
FIGS. 10A-10D. Binding of Glycine to GPR158 in ITC experiments. […]

Question: Which results are given for `NCC(=O)O` [glycine]?
Answer: Kd (mean of 4 experimental runs, independent binding model, read-out: KD (ITC, mean)): 7.76 ± 3.66 µM; Kd (range across experiments, read-out: binding constants (KD) across experiments): 2 to 16 µM
